Measurements from patent publication US8536187B2 (Gilead Sciences, Inc., priority 2008, dated 2013).
pEC50: −log10 of the molar value.

Experiments:
[1] = CC50 assay (CellTiter-Glo) in Huh-7 HCV replicon cells; assay type: cell-based; conditions: human
Procedure, shortened: (§1)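 Huh-7 cells carrying HCV replicon (6000/well) incubated with serially diluted compound, 0.5% DMSO final, 3 days at 37° C, 5% CO2. EC50 from luciferase luminescence after 30 min lysis/substrate at room temperature; CC50 from CellTiter-Glo luminescence after 10 min at room temperature.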

[2] = test system: HCV replicon in human hepatoma Huh-7 cell line; experiment: Anti-HCV replicon assay, EC50 (luciferase luminescence); assay type: cell-based; conditions: Hepatitis C virus, Huh-7, 72 h
Procedure, shortened: as §1

Compound	CC50 at 3 days ([1]; Table 2, 3 days incubation) [nM]	pEC50 [2]	CC50 at 3 days ([1]; Table 1, 3 days incubation) [nM]
N#Cc1cc(F)ccc1-c1ccc2nc(NCc3cc(C(F)(F)F)cc(S(N)(=O)=O)c3)nc(NC3(C(F)(F)F)CC3)c2n1 [Example 99, 3-((6-(2-cyano-4-fluorophenyl)-4-(1-(trifluoromethyl)cyclopropyl-amino)pyrido[3,2-d]pyrimidin-2-ylamino)methyl)-5-(trifluoro-methyl)benzenesulfonamide]	1000 to 10000	> 7.00	
C#Cc1ccc2nc(N[C@H](C)c3ccc(S(N)(=O)=O)cc3)nc(OC3(C)CC3)c2n1 [Example 295, (R)-4-(1-(6-ethynyl-4-(1-methylcyclopropoxy)pyrido [3,2-d]pyrimidin-2-ylamino)ethyl)benzenesulfonamide]	1000 to 10000	> 7.00	
C#Cc1ccc2nc(N[C@H](C)c3ccc(S(N)(=O)=O)cc3)nc(O[C@@H]3C[C@@H]4C[C@@H]4C3)c2n1 [Example 314, 4-((R)-1-(4-((1S,3r,5R)-bicyclo[3.1.0]hexan-3-yloxy)-6-ethynylpyrido[3,2-d]pyrimidin-2-ylamino)ethyl) benzenesulfonamide]	> 10000	> 7.00	
CC#Cc1ccc2nc(N[C@H](C)c3ccc(S(N)(=O)=O)cc3)nc(NCC(F)(F)F)c2n1 [Example 298, (R)-4-(1-(6-(prop-1-ynyl)-4-(2,2,2-trifluoroethylamino)pyrido[3,2-d]pyrimidin-2-ylamino)ethyl)benzene-sulfonamide]	> 10000	> 7.00	
Cc1cc(S(N)(=O)=O)ccc1[C@H](C)Nc1nc(NC2(C(F)(F)F)CC2)c2nc(-c3ccc(F)cc3)ccc2n1 [Example 108, (S)-4-(1-(6-(4-fluorophenyl)-4-(1-(trifluoromethyl)cyclopropyl-amino)pyrido[3,2-d]pyrimidin-2-ylamino)ethyl)-3-methylbenzene-sulfonamide]	> 10000	5.70 to 6.60	
NS(=O)(=O)c1cc(Cl)cc(CNc2nc(NC3(C(F)(F)F)CC3)c3nc(-c4ccc(C(=O)NC5(C(F)(F)F)CC5)cc4)ccc3n2)c1 [Example 95, 3-chloro-5-((6-(4-(1-(trifluoromethyl)cyclopropyl-aminocarbonyl)phenyl)-4-(1-(trifluoromethyl)cyclopropyl-amino)pyrido[3,2-d]pyrimidin-2-ylamino)methyl)benzene-sulfonamide]	1000 to 10000	> 7.00	
COc1ccc(-c2ccc3nc(NCc4ccc(S(N)(=O)=O)cc4)nc(NCC(F)(F)F)c3n2)cc1S(=O)(=O)C(F)(F)F [Example 165, 4-((6-(4-methoxy-3-(trifluoromethylsulfonyl)phenyl)-4-(2,2,2-trifluoroethylamino)pyrido[3,2-d]pyrimidin-2-ylamino)methyl)benzene-sulfonamide]	1000 to 10000	> 7.00	
c1ncn(-c2ccc(CNc3nc(OC4CC4)c4nc(-c5ccc(OC6CC6)nc5)ccc4n3)cc2)n1 [Example 248, N-(4-(1H-1,2,4-triazol-1-yl)benzyl)-4-cyclopropoxy-6-(6-cyclopropoxypyridin-3-yl)pyrido[3,2-d]pyrimidin-2-amine]	1000 to 10000	> 7.00	
CCOc1ccc(-c2ccc3nc(N[C@H](C)c4ccc(-n5cncn5)cc4)nc(NCC(F)(F)F)c3n2)cc1S(N)(=O)=O [Example 265, 5-(2-((R)-1-(4-(1H-1,2,4-triazol-1-yl)phenyl)ethylamino)-4-(2,2,2-trifluoroethylamino)pyrido [3,2-d]pyrimidin-6-yl)-2-ethoxybenzenesulfonamide]	1000 to 10000	> 7.00	
C[C@H](Cn1cncn1)Nc1nc(NCC(F)(F)F)c2nc(-c3ccc(OC(F)F)c(S(C)(=O)=O)c3)ccc2n1 [Example 206, N^2-((R)-1-(1H-1,2,4-triazol-1-yl)propan-2-yl)-6-(4-(difluoromethoxy)-3-(methylsulfonyl)phenyl)-N^4-(2,2,2-trifluoroethyl) pyrido[3,2-d]pyrimidine-2,4-diamine]	> 10000	5.70 to 6.60	
CS(=O)(=O)c1cccc(CNc2nc(NC3(C(F)(F)F)CC3)c3nc(-c4ccc(F)cc4)ccc3n2)c1 [Example 86, N^2-(3-(methylsulfonyl)benzyl)-6-(4-fluorophenyl)-N^4-(1-(trifluoromethyl)cyclopropyl) pyrido[3,2-d]pyrimidine-2,4-diamine]	> 10000	> 7.00	
CS(=O)(=O)c1cc(-c2ccc3nc(NCc4ccc(-n5cncn5)cc4)nc(OC4CC4)c3n2)ccc1OC(F)F [Example 192, N-(4-(1H-1,2,4-triazol-1-yl)benzyl)-4-cyclopropoxy-6-(4-(difluoromethoxy)-3-(methylsulfonyl)phenyl)pyrido [3,2-d]pyrimidin-2-amine]	1000 to 10000	> 7.00	
CCOc1ccc(-c2ccc3nc(NCc4ccc(-n5cncn5)cc4)nc(NCC(F)(F)F)c3n2)cc1S(C)(=O)=O [Example 183, N^2-(4-(1H-1,2,4-triazol-1-yl)benzyl)-6-(4-ethoxy-3-(methylsulfonyl)phenyl)-N^4-(2,2,2-trifluoroethyl)pyrido [3,2-d]pyrimidine-2,4-diamine]	1000 to 10000	> 7.00	
C[C@@H](Nc1nc(NCC(F)(F)F)c2nc(-c3cccc(S(C)(=O)=O)c3)ccc2n1)c1ccc(S(=O)(=O)NC(C)(C)C)cc1 [Example 136, N-tert-butyl-4-((R)-1-(6-(3-(methylsulfonyl)phenyl)-4-(2,2,2-trifluoroethylamino)pyrido[3,2-d]pyrimidin-2-ylamino)ethyl)benzene-sulfonamide]	> 10000	> 7.00	
NS(=O)(=O)c1cc(-c2ccc3nc(NCc4ccc(-n5cncn5)cc4)nc(NC4(C(F)(F)F)CC4)c3n2)ccc1Cl [Example 37, 5-(2-(4-(1H-1,2,4-triazol-1-yl)benzylamino)-4-(1-(trifluoromethyl)cyclopropyl-amino)pyrido[3,2-d]pyrimidin-6-yl)-2-chlorobenzenesulfonamide]	1000 to 10000	> 7.00	
C[C@@H](Nc1nc(O[C@@H]2C[C@@H]3C[C@@H]3C2)c2nc(C#CC3CC3)ccc2n1)c1ccc(S(N)(=O)=O)cc1 [Example 299, 4-((R)-1-(4-((1S,3r,5R)-bicyclo [3.1.0]hexan-3-yloxy)-6-(2-cyclopropylethynyl)pyrido [3,2-d]pyrimidin-2-ylamino)ethyl)benzenesulfonamide]	1000 to 10000	> 7.00	
C[C@H](Nc1nc(NCc2ccc(-n3cncn3)cc2)nc2ccc(-c3cccc(S(C)(=O)=O)c3)nc12)C(F)(F)F [Example 187, N^2-(4-(1H-1,2,4-triazol-1-yl)benzyl)-6-(3-(methylsulfonyl)phenyl)-N^4-((S)-1,1,1-trifluoropropan-2-yl)pyrido [3,2-d]pyrimidine-2,4-diamine]	> 10000	> 7.00	
C[C@@H](Nc1nc(OC2(C)CC2)c2nc(C#CC3CC3)ccc2n1)c1ccc(S(N)(=O)=O)cc1 [Example 296, (R)-4-(1-(6-(2-cyclopropyl-ethynyl)-4-(1-methylcyclo-propoxy)pyrido[3,2-d]pyrimidin-2-ylamino)ethyl)benzene-sulfonamide]	> 10000	> 7.00	
COc1ccc(-c2ccc3nc(NCc4cccc(S(C)(=O)=O)c4)nc(NCC(F)(F)F)c3n2)cc1S(C)(=O)=O [Example 177, N^2-(3-(methylsulfonyl)benzyl)-6-(4-methoxy-3-(methylsulfonyl)phenyl)-N^4-(2,2,2-trifluoroethyl) pyrido[3,2-d]pyrimidine-2,4-diamine]	1000 to 10000	> 7.00	
Fc1ccc(-c2ccc3nc(NCc4cc(F)cc(-n5cncn5)c4)nc(NC4(C(F)(F)F)CC4)c3n2)cc1 [Example 128, N^2-(3-fluoro-5-(1H-1,2,4-triazol-1-yl)benzyl)-6-(4-fluorophenyl)-N^4-(1-(trifluoromethyl)cyclopropyl) pyrido[3,2-d]pyrimidine-2,4-diamine]	> 10000	5.70 to 6.60	
CC(C)Oc1nc(N[C@H](C)c2ccc(S(N)(=O)=O)cc2)nc2ccc(C#CC3CC3)nc12 [Example 304, (R)-4-(1-(6-(2-cyclopropyl-ethynyl)-4-isopropoxypyrido [3,2-d]pyrimidin-2-ylamino)ethyl)benzenesulfonamide]	> 10000	> 7.00	
CC1(Oc2nc(NCc3ccc(-n4cncn4)cc3)nc3ccc(-c4ccc(OC5CCC5)nc4)nc23)CC1 [Example 249, N-(4-(1H-1,2,4-triazol-1-yl)benzyl)-6-(6-cyclobutoxy-pyridin-3-yl)-4-(1-methylcyclo-propoxy)pyrido[3,2-d] pyrimidin-2-amine]	1000 to 10000	> 7.00	
C[C@@H](Nc1nc(OC2CCC2)c2nc(C#CC3CC3)ccc2n1)c1ccc(S(N)(=O)=O)cc1 [Example 305, (R)-4-(1-(4-cyclobutoxy-6-(2-cyclopropylethynyl)pyrido [3,2-d]pyrimidin-2-ylamino)ethyl)benzenesulfonamide]	> 10000	> 7.00	
c1ncn(-c2ccc(CNc3nc(C4CC4)c4nc(-c5ccc(OC6CC6)nc5)ccc4n3)cc2)n1 [Example 267, N-(4-(1H-1,2,4-triazol-1-yl)benzyl)-6-(6-cyclopropoxy-pyridin-3-yl)-4-cyclopropyl-pyrido[3,2-d]pyrimidin-2-amine]	> 10000	6.60 to 7.00	
NS(=O)(=O)c1ccc(CNc2nc(NCC(F)(F)F)c3nc(-c4ccc(F)cc4)ccc3n2)cc1Cl [Example 5, 2-Chloro-4-{[6-(4-fluoro-phenyl)-4-(2,2,2-trifluoro-ethylamino)-pyrido[-3,2-d]pyrimidin-2-ylamino]-methyl}-benzenesulfonamide]		> 7.00	> 25000
CS(=O)(=O)Nc1cccc(CNc2nc(NC3(C(F)(F)F)CC3)c3nc(-c4ccc(F)cc4)ccc3n2)c1 [Example 87, N-(3-((6-(4-fluorophenyl)-4-(1-(trifluoromethyl)cyclopropyl-amino)pyrido[3,2-d]pyrimidin-2-ylamino)methyl)phenyl) methanesulfonamide]	> 10000	6.60 to 7.00	
